Experimental data taken from patent publication US8658351B2, “Determining liver toxicity of an agent using metabolite biomarkers” (Metabolon, Inc., priority 2009, dated 2014).
Like-named read-outs stand apart in the source and are kept apart here.

Legend:
Rats [1] = test: Rat liver toxicant study: routine clinical chemistry (AST, ALT, TBIL, ALP); type: in vivo; conditions: day at which change was seen
Procedure: Rats were treated daily with a single oral dose of a known liver toxicants at low and high doses (as shown in Table 3) as well as with a vehicle control containing none of the toxicant. […] Plasma, urine, and liver samples were collected at day 2 and day 5 for metabolomic analysis, liver histopathology, and routine clinical chemistry (i.e., aspartate aminotransferase (AST), alanine aminotransferase (ALT), total bilirubin (TBIL), alkaline phosphatase (ALP)).

Rats [2] = test: Rat liver toxicant study: liver histopathology; conditions: for Histopathology (Necrosis) / Histopathology (Steatosis) / Histopathology (Cholestasis): rats, daily single oral dose; for Histopathology (Necrosis): day at which change was seen (samples day 2 and day 5); for Histopathology (Steatosis) / Histopathology (Cholestasis): day at which change was seen
Procedure: Rats were treated daily with a single oral dose of a known liver toxicants at low and high doses (as shown in Table 3) as well as with a vehicle control containing none of the toxicant. The hepatotoxic agents listed in Table 3 are known to induce distinct types of liver histopathology as described in Table 4. Plasma, urine, and liver samples were collected at day 2 and day 5 for metabolomic analysis, liver histopathology, and routine clinical chemistry (i.e., aspartate aminotransferase (AST), alanine aminotransferase (ALT), total bilirubin (TBIL), alkaline phosphatase (ALP)).

Rats [3] = conditions: cited from earlier work
humans = conditions: cited from earlier work
[4] = High dose, agents known to induce distinct types of liver histopathology
[5] = classified as No Rat Tox/Human specific

In the case of `CN(C)CCN(Cc1cccs1)c1ccccn1` [Methapyrilene], the “Clinical Chemistry ALP” value (Rats [1]; high dose) is reported as “Day5”, the “Clinical Chemistry ALT” value (Rats [1]; high dose) is reported as “Day2~” and the “Clinical Chemistry AST” value (Rats [1]; high dose) is reported as “Day2~”. For the same compound, the “Clinical Chemistry TBIL” value (Rats [1]; high dose) was “Day2~”, the “Clinical Chemistry ALT” value (Rats [1]; low dose) was “Day5” and the “Clinical Chemistry AST” value (Rats [1]; low dose) was “Day5”. For the same compound, the “Clinical Chemistry TBIL” value (Rats [1]; low dose) was “Day5”, the “Histopathology (Necrosis)” value (Rats [2]; high dose) was “Day2~” and the “Histopathology (Necrosis)” value (Rats [2]; low dose) was “Day5”. The “Classification of toxic effect on liver histopathology (type of histopathology)” value (shortened to “Classification … (type of histopathology)”) (Rats [3]; rat, in vivo) was “Necrosis”.

In the case of `ClC(Cl)(Cl)Cl` [Carbon tetrachloride], the “Histopathology (Steatosis)” value (Rats [2]; high dose) is given as “Day2~”, the “Histopathology (Steatosis)” value (Rats [2]; low dose) is given as “Day2~” and the “Classification … (type of histopathology)” value (Rats [3]; [4]) is given as “Steatosis”.

For `NC(=O)N1c2ccccc2C=Cc2ccccc21` [Carbamazepine], the Hepatotoxicity to humans (humans) is given as “known hepatotoxins to humans”, the “Hepatotoxic changes in rats (histopathology, clinical chemistry)” value (Rats [2]; [5]) is given as “no hepatotoxic changes” and the “Classification … (type of histopathology)” value (Rats [3]; rat, in vivo) is given as “No Histopathology”.

With `CN(C)[C@@H]1C(O)=C(C(N)=O)C(=O)[C@@]2(O)C(O)=C3C(=O)c4c(O)cccc4[C@@](C)(O)[C@H]3C[C@@H]12` [Tetracycline] the “Histopathology (Steatosis)” value (Rats [2]; high dose) was “Day5” and the “Histopathology (Steatosis)” value (Rats [2]; low dose) was “Day2~”.

In the case of `Clc1ccccc1CN1CCc2sccc2C1` [Ticlopidine], the “Histopathology (Necrosis)” value (Rats [2]; high dose) is reported as “Day5”.

For `CCSCCC(N)C(=O)O` (racemic) [Ethionine, DL Ethionine], the “Clinical Chemistry TBIL” value (Rats [1]; high dose) was “Day2~”, the “Clinical Chemistry TBIL” value (Rats [1]; low dose) was “Day2~” and the “Histopathology (Steatosis)” value (Rats [2]; high dose) was “Day2~”. For the same compound, the “Histopathology (Steatosis)” value (Rats [2]; low dose) was “Day2” and the “Classification … (type of histopathology)” value (Rats [3]; [4]) was “Steatosis”.

For `S=C=Nc1cccc2ccccc12` [ANIT, 1-naphthyl isothiocyanate], the “Clinical Chemistry ALT” value (Rats [1]; high dose) was “Day2~”, the “Clinical Chemistry AST” value (Rats [1]; high dose) was “Day2~” and the “Clinical Chemistry TBIL” value (Rats [1]; high dose) was “Day2~”. The “Clinical Chemistry ALT” value (Rats [1]; low dose) was “Day5”, the “Clinical Chemistry TBIL” value (Rats [1]; low dose) was “Day5” and the “Histopathology (Cholestasis)” value (Rats [2]; high dose) was “Day2~”. For the same compound, the “Histopathology (Cholestasis)” value (Rats [2]; low dose) was “Day5”.

In the case of `CC(C)C(=O)Nc1ccc([N+](=O)[O-])c(C(F)(F)F)c1` [Flutamide], the Hepatotoxicity to humans (humans) is given as “known hepatotoxins to humans”, the “Clinical Chemistry TBIL” value (Rats [1]; high dose) is given as “Day2” and the “Hepatotoxic changes in rats (histopathology, clinical chemistry)” value (Rats [2]; [5]) is given as “no hepatotoxic changes”. For the same compound, the “Classification … (type of histopathology)” value (Rats [3]; rat, in vivo) was “No Histopathology”.

In the case of `CS(=O)(=O)Nc1ccc([N+](=O)[O-])cc1Oc1ccccc1` [Nimesulide], the “Clinical Chemistry TBIL” value (Rats [1]; high dose) is reported as “Day2”, the “Clinical Chemistry ALT” value (Rats [1]; low dose) is reported as “Day5” and the “Clinical Chemistry TBIL” value (Rats [1]; low dose) is reported as “Day2”. For the same compound, the “Hepatotoxic changes in rats (histopathology, clinical chemistry)” value (Rats [2]; rat, in vivo) was “no hepatotoxic changes”.

With `CC(=O)Nc1ccc(O)cc1` [Acetaminophen] the “Histopathology (Necrosis)” value (Rats [2]; high dose) was “Day2” and the “Histopathology (Necrosis)” value (Rats [2]; low dose) was “Day2”.

For `O=C(O)COc1nn(Cc2ccccc2)c2ccccc12` [Bendazac], the “Clinical Chemistry ALP” value (Rats [1]; high dose) was “Day2~”, the “Clinical Chemistry ALT” value (Rats [1]; high dose) was “Day5” and the “Clinical Chemistry ALP” value (Rats [1]; low dose) was “Day2”. The “Clinical Chemistry ALT” value (Rats [1]; low dose) was “Day5”, the “Histopathology (Necrosis)” value (Rats [2]; high dose) was “Day5” and the “Histopathology (Necrosis)” value (Rats [2]; low dose) was “Day5”. For the same compound, the “Classification … (type of histopathology)” value (Rats [3]; rat, in vivo) was “Necrosis”.

In the case of `CC(=O)N1CCN(c2ccc(OCC3COC(Cn4ccnc4)(c4ccc(Cl)cc4Cl)O3)cc2)CC1` (stereo not shown) [Ketoconazole], the “Classification … (type of histopathology)” value (Rats [3]; rat, in vivo) is given as “Phospholipidosis”.
